Assay results published in US8937062B2, “Compositions and methods for treating, reducing, ameliorating, or preventing infections caused by antibacterial drug-resistant bacteria” (Bausch & Lomb Incorporated, priority 2007, dated 2015).
Converted amounts (≈) assume the structure as drawn. Like-named read-outs stand apart in the source and are kept apart here.

Tests used:
[1] = test system: GM-resistant P. aeruginosa; assay: MIC90, agar plate dilution method (NCCLS), Table 2; assay type: cell-based; conditions: 10 isolates; for MIC90: Pseudomonas aeruginosa
Protocol: (§1) The MIC90 values for this test were determined by the agar plate dilution method according to the National Committee for Clinical Laboratory Standards (“NCCLS”).

[2] = test system: APC-resistant Haemophilus influenza.; assay: MIC90, agar plate dilution method (NCCLS), Table 2; assay type: cell-based; conditions: for MIC90: Haemophilus
Protocol: as §1

[3] = test system: PCG-resistant S. pneumoniae; assay: MIC90, agar plate dilution method (NCCLS), Table 2; assay type: cell-based; conditions: 10 isolates; for MIC90: Streptococcus pneumoniae
Protocol: as §1

[4] = test system: OFLX-resistant Enterobacteriaceae; assay: MIC90, agar plate dilution method (NCCLS), Table 2; assay type: cell-based
Protocol: as §1

GM-resistant S. aureus = assay: MIC90, agar plate dilution method (NCCLS), Table 2; assay type: cell-based; conditions: Staphylococcus aureus, 10 isolates
Protocol: as §1

OFLX-resistant S. aureus = assay: MIC90, agar plate dilution method (NCCLS), Table 2; assay type: cell-based; conditions: Staphylococcus aureus, 10 isolates
Protocol: as §1

[5] = test system: S. aureus Clinical Isolates; assay: In vitro activity against clinical isolates, sixth test, Table 7; assay type: cell-based; conditions: Staphylococcus aureus, 49 isolates
[6] = test system: penicillin-resistant S. aureus; assay: MIC90, Japanese Society of Chemotherapy guidelines (1993), Table 3; assay type: cell-based; conditions: Staphylococcus aureus, read-out: MIC90
Protocol: (§2) In a second test, compounds having Formulae IV and V, their racemic mixture, and OFLX were tested in vitro against S. aureus strains that are resistant to methicillin or penicillin. The test was conducted according to the guidelines of the Japanese Society of Chemotherapy (1993).

[7] = test system: methicillin-resistant S. aureus; assay: as above; assay type: cell-based; conditions: Staphylococcus aureus, read-out: MIC90
Protocol: as §2

[8] = test system: Ofloxacin-resistant Staphylococcus aureus; assay: In vitro anti-bacterial activity, resistant clinical isolates, fifth test, Table 6; assay type: cell-based; conditions: read-out: MIC90
From the text: (§3) As disclosed above, most of these bacteria strains are also relevant to infections of the ear and upper respiratory tract.

[9] = test system: Gentamicin-resistant Pseudomonas aeruginosa; assay: as above; assay type: cell-based; conditions: read-out: MIC90
From the text: as §3

[10] = test system: Penicillin-resistant Streptococcus pneumoniae; assay: as above; assay type: cell-based; conditions: read-out: MIC90
From the text: as §3

[11] = test system: Gentamicin-resistant Staphylococcus aureus; assay: as above; assay type: cell-based; conditions: read-out: MIC90
From the text: as §3

[12] = test system: Methicillin-Resistant S. aureus Isolates; assay: In vitro anti-bacterial activity, fourth test, Table 5; assay type: cell-based, Staphylococcus aureus; conditions: Staphylococcus aureus, read-out: MIC90
Protocol: In a fourth test, the anti-bacterial activity of the compound having Formula IV was tested against some methicillin-resistant S. aureus bacteria strains and compared to the anti-bacterial activity of three commercially available antibiotics: nadifloxacin (“NDFX”), ofloxacin (“OFLX”), and sparfloxacin (“SPFX”).

[13] = test system: S. pneumoniae Clinical Isolates; assay: In vitro activity against clinical isolates, sixth test, Table 7; assay type: cell-based; conditions: 78 isolates
[14] = test system: Ofloxacin-resistant Enterobacteriaceae; assay: organism not typed; assay type: cell-based
From the text: as §3

Q: With `CC1COc2c(N3CCN(C)CC3)c(F)cc3c(=O)c(C(=O)O)cn1c23` (stereo not drawn) [OFLX, ofloxacin] as the molecule, how does the “MIC90 Range” value [1] read?
A: The value was 0.5 to 128 µg/mL.

Q: What about the MIC90 ([1]; read-out: MIC90 Geometric Mean) of the same molecule?
A: The MIC90 was 6.5 µg/mL (≈ 18 µM).

Q: What about the MIC90 ([1]; read-out: MIC90 Value) of the same molecule?
A: The MIC90 was 64 µg/mL (≈ 177 µM).

Q: What about the “MIC90 Range” value ([2]; APC-resistant Haemophilus influenza., 10 isolates) of the same molecule?
A: The value was “≦0.06 μg/ml”.

Q: What about the MIC90 ([2]; read-out: MIC90 Geometric Mean) of the same molecule?
A: Its MIC90 is no more than 0.06 µg/mL.

Q: What about the MIC90 ([2]; read-out: MIC90 Value) of the same molecule?
A: The MIC90 was no more than 0.06 µg/mL.

Q: What about the “MIC90 Range” value [3] of the same molecule?
A: Its value is 1 to 2 µg/mL.

Q: What about the MIC90 ([3]; read-out: MIC90 Geometric Mean) of the same molecule?
A: The MIC90 was 1.52 µg/mL (≈ 4.21 µM).

Q: What about the MIC90 ([3]; read-out: MIC90 Value) of the same molecule?
A: The MIC90 was 2 µg/mL (≈ 5.53 µM).

Q: And the “MIC90 Range” value ([4]; OFLX-resistant Enterobacteriaceae, 10 isolates)?
A: Its value is 8 to 64 µg/mL.

Q: What about the MIC90 ([4]; read-out: MIC90 Geometric Mean) of the same molecule?
A: The MIC90 was 21.1 µg/mL (≈ 58.4 µM).

Q: And the MIC90 ([4]; read-out: MIC90 Value)?
A: The MIC90 was 64 µg/mL (≈ 177 µM).

Q: And the MIC90 (GM-resistant S. aureus; read-out: MIC90 Geometric Mean)?
A: Its MIC90 is 16 µg/mL (≈ 44.3 µM).

Q: And the MIC90 (GM-resistant S. aureus; read-out: MIC90 Value)?
A: Its MIC90 is greater than 128 µg/mL.

Q: What about the MIC90 (OFLX-resistant S. aureus; read-out: MIC90 Geometric Mean) of the same molecule?
A: The MIC90 was 104 µg/mL (≈ 288 µM).

Q: What about the MIC90 (OFLX-resistant S. aureus; read-out: MIC90 Value) of the same molecule?
A: The MIC90 was greater than 128 µg/mL.

Q: What about the MIC90 [5] of the same molecule?
A: Its MIC90 is 8 µg/mL (≈ 22.1 µM).

Q: What about the MIC90 ([6]; ATCC11632, S. aureus (ATCC 11632)) of the same molecule?
A: Its MIC90 is 0.2 µg/mL (≈ 0.553 µM).

Q: What about the MIC90 ([6]; ATCC13301, S. aureus (ATCC 13301)) of the same molecule?
A: Its MIC90 is 0.2 µg/mL (≈ 0.553 µM).

Q: And the MIC90 ([7]; ATCC33591, S. aureus (ATCC 33591))?
A: Its MIC90 is 0.39 µg/mL (≈ 1.08 µM).

Q: And the MIC90 ([7]; ATCC33592, S. aureus (ATCC 33592))?
A: Its MIC90 is 0.2 µg/mL (≈ 0.553 µM).

Q: And the MIC90 ([7]; ATCC33593, S. aureus (ATCC 33593))?
A: Its MIC90 is 0.2 µg/mL (≈ 0.553 µM).

Q: And the MIC90 ([7]; S. aureus (No. 395))?
A: The MIC90 was 0.39 µg/mL (≈ 1.08 µM).

Q: What about the MIC90 ([7]; S. aureus (No. 415)) of the same molecule?
A: Its MIC90 is 0.2 µg/mL (≈ 0.553 µM).

Q: And the MIC90 ([7]; S. aureus (No. 419))?
A: The MIC90 was 0.39 µg/mL (≈ 1.08 µM).

Q: And the MIC90 ([7]; S. aureus (No. 420))?
A: The MIC90 was 0.2 µg/mL (≈ 0.553 µM).

Q: What about the MIC90 ([7]; S. aureus (No. 421)) of the same molecule?
A: Its MIC90 is 0.39 µg/mL (≈ 1.08 µM).

Q: What about the MIC90 [8] of the same molecule?
A: Its MIC90 is greater than 128 µg/mL.

Q: And the MIC90 [9]?
A: Its MIC90 is 64 µg/mL (≈ 177 µM).

Q: What about the MIC90 [10] of the same molecule?
A: Its MIC90 is 2 µg/mL (≈ 5.53 µM).

Q: What about the MIC90 [11] of the same molecule?
A: Its MIC90 is 128 µg/mL (≈ 354 µM).

Q: And the MIC90 ([12]; ATCC33591, Staphylococcus aureus (ATCC 33591))?
A: The MIC90 was 0.05 µg/mL (≈ 0.138 µM).

Q: And the MIC90 ([12]; ATCC33592, Staphylococcus aureus (ATCC 33592))?
A: The MIC90 was 0.39 µg/mL (≈ 1.08 µM).

Q: What about the MIC90 ([12]; ATCC33593, Staphylococcus aureus (ATCC 33593)) of the same molecule?
A: Its MIC90 is 0.2 µg/mL (≈ 0.553 µM).

Q: And the MIC90 ([12]; Staphylococcus aureus (No. 395))?
A: Its MIC90 is 0.2 µg/mL (≈ 0.553 µM).

Q: And the MIC90 ([12]; Staphylococcus aureus (No. 415))?
A: Its MIC90 is 0.78 µg/mL (≈ 2.16 µM).

Q: And the MIC90 ([12]; Staphylococcus aureus (No. 419))?
A: The MIC90 was 3.13 µg/mL (≈ 8.66 µM).

Q: And the MIC90 ([12]; Staphylococcus aureus (No. 420))?
A: The MIC90 was 1.56 µg/mL (≈ 4.32 µM).

Q: And the MIC90 ([12]; Staphylococcus aureus (No. 421))?
A: The MIC90 was 1.56 µg/mL (≈ 4.32 µM).

Q: What about the “MIC90 Range” value [13] of the same molecule?
A: The value was 1 to 2 µg/mL.

Q: And the MIC90 ([13]; Streptococcus pneumoniae)?
A: The MIC90 was 1 µg/mL (≈ 2.77 µM).

Q: What about the MIC90 [14] of the same molecule?
A: The MIC90 was 64 µg/mL (≈ 177 µM).
